This passage reports TGI and GI50 results from PubChem BioAssay (NCI).

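Five compound concentrations were applied to cells in 96-well plates for 48 hours; endpoints were derived by simple linear interpolation of the resulting dose-response curve. The concentration for 50% growth inhibition is given as GI50. TGI: concentration producing complete growth inhibition.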 A value given as a limit tells only on which side of the number the result lay.

Test in all cases: NCI tumour cell line growth inhibition, 48 h
Assay [1] concerns UACC-257 melanoma.
For assay [2], the system named is HS 578T breast.
Assay [3] concerns HOP-62 NSCLC.
Assay [4] deals with MDA-MB-231 breast.
In assay [5] the test system is SR leukemia.
For assay [6], the system named is BT-549 breast.
The subject of assay [7] is SW-620 colon.
For assay [8], the system named is OVCAR-3 ovarian.
Assay [9] concerns MALME-3M melanoma.
The subject of assay [10] is EKVX NSCLC.

On to `CC1(C2(C)OC(=O)c3ccccc32)OC(=O)c2ccccc21` (centres undefined), for which the TGI in assay [1], in assay [2], in assay [3], in assay [4], in assay [5] and in assay [6] was over 100 µM throughout. In addition, the TGI in assay [7] and in [8] was over 100 µM in each case.
Consider `O=C1CCC[C@]2(CCC[C@@H](O)C2)N1`, for which the TGI in assay [1], in assay [9], in [10], in [2], in assay [3] and in assay [4] was over 100 µM each time. For the same molecule, the TGI in [6] and in assay [8] was over 100 µM each time.
As to `CCCCC(=O)Nc1ccc2cc(C(=O)OC)c(ON3C(=O)c4ccccc4C3=O)nc2n1`, the TGI in assay [1] is over 100 µM; in assay [9], 38.5 µM; in assay [10] it was over 100 µM; in [3] it was 37.6 µM; in assay [4] it was over 100 µM; in assay [5] it was over 100 µM. Further, the TGI in [6], in [7] and in assay [8] was over 100 µM each time.
For `O=C(CC(=O)N1N=C(N2CCCCC2)CC1c1ccccc1)Nc1ccc(Cl)cc1` (centres undefined), the TGI in assay [1], in [9], in assay [10], in [2], in [3] and in assay [4] was over 100 µM throughout. Further, the TGI in [6], in assay [7] and in [8] was over 100 µM each time.
Take `CC(C)NC(=O)CN1CCN(C2=CC(=O)c3c(O)ccc(O)c3C2=O)CC1`: the TGI in assay [1] was 19.8 µM; in [9] it was 4.41 µM; in [10], 33.6 µM; in assay [2] it was 62.5 µM; in assay [3], 32.3 µM; in assay [4], over 63.5 µM. Besides, the figures for the TGI in assay [6], in [7] and in assay [8] were 32.1 µM, 14.4 µM and 6.56 µM, respectively.
With `CCCc1c(OC)c(=O)c2c(OC)cc(OC)c3c4c(OC)cc(OC)c5c(=O)c(OC)c(CCC)c(c1c23)c54`, the TGI in assay [1] amounted to 46.6 µM; in [10], 28 µM; in assay [3], 33 µM; in assay [4], 18.3 µM; in assay [6], 31.4 µM; in assay [7] it was 33.7 µM. The same molecule returned a TGI in assay [8] of 31.8 µM.
For `N#CCCN(CCC#N)c1ccc(C(N=Nc2ccccc2)=Nc2ccccc2)cc1`, the TGI in assay [1], in assay [10], in assay [2], in assay [3], in assay [4] and in assay [5] was over 100 µM throughout. Further, the TGI in assay [6], in assay [7] and in assay [8] was over 100 µM in each case.
For `CC1=C2C(=O)[C@H]3[C@@H](CC=C4C[C@@H](O)CC[C@@]43C)[C@@H]2CC[C@]12O[C@@H]1C[C@H](C)CN[C@H]1[C@H]2C`, the TGI was over 71.5 µM in assay [1]; over 79.3 µM in assay [9]; over 66.7 µM in assay [10]; over 100 µM in [2]; over 55.2 µM in assay [3]; over 100 µM in assay [4]. Also, the TGI in assay [6] was over 100 µM; in assay [7] it was over 79.9 µM; in assay [8], over 56 µM.
Take `Clc1ccc(Oc2ccc(N=Cc3ccc(Cl)cc3Cl)cc2Cl)cc1`: the TGI in [1] was over 100 µM; in assay [9] it was 87.4 µM; in assay [10] it was over 100 µM; in assay [2] it was 71.1 µM; in [3], over 100 µM; in assay [4], over 100 µM. Besides, the TGI in assay [6] is 93.1 µM; in assay [7] it was over 100 µM; in assay [8], over 100 µM.
`COc1ccc(N=C(C)c2ccncc2)cc1`: the TGI in [1], in assay [9], in [10], in assay [2], in assay [3] and in assay [4] was over 100 µM throughout. Also, the TGI in assay [6], in [7] and in [8] was over 100 µM each time.
`COCC1CCCN1c1ccc(/C=C(/C#N)C(N)=S)cc1` (centres undefined): the GI50 was over 100 µM in [1]; over 100 µM in assay [9]; over 100 µM in assay [10]; over 100 µM in [2]; over 100 µM in [3]; 9.89 µM in assay [4]. The GI50 in [6] is over 100 µM; in [7], 79.4 µM; in [8], over 100 µM. In addition, the TGI was over 100 µM in assay [1]; over 100 µM in assay [9]; over 100 µM in assay [10]; over 100 µM in assay [2]; over 100 µM in assay [3]; 55.8 µM in assay [4]. For the same molecule, the TGI in assay [6], in assay [7] and in assay [8] was over 100 µM each time.
For `CC(OC(=O)NCn1cc(-c2ccccc2)nn1)c1ccccc1` (centres undefined), the TGI is over 100 µM in [1]; 89.9 µM in [9]; over 100 µM in assay [10]; over 100 µM in assay [3]; over 100 µM in assay [4]; over 100 µM in assay [5]. Further, the TGI in assay [6] and in [7] was over 100 µM in each case.
Turning to `Nc1c(-c2nc3ccccc3s2)c2ccc([N+](=O)[O-])cc2c(=O)n1-c1cccc(C(=O)O)c1`, the TGI was 61.9 µM in [1]; over 100 µM in [2]; 37.8 µM in assay [4]; 44.1 µM in assay [5]; 64.3 µM in [6]; over 100 µM in assay [7].
For `O=c1[nH]c(Nc2cccc(C(F)(F)F)c2)nc2nc[nH]c12`, the TGI in assay [1], in assay [9], in assay [10], in assay [2], in assay [3] and in assay [4] was over 100 µM throughout. The TGI in assay [5], in assay [7] and in assay [8] was over 100 µM throughout.
Consider `CCCCCNc1nonc1N`, for which the TGI in assay [1], in assay [9], in assay [10], in assay [2], in [3] and in [4] was over 100 µM in each case. For the same molecule, the TGI in assay [5], in assay [7] and in [8] was over 100 µM in each case.
Take `Cc1cccc2c1Oc1cc(Cl)ccc1C2NC(=O)CCN1CCN(CCO)CC1` (centres undefined): the TGI in assay [1] was 33.7 µM; in assay [10], 70.5 µM; in assay [3], 32.9 µM; in [4], 14.6 µM; in [5], 45.1 µM; in [6], 37.5 µM. In addition, the TGI in assay [7] turned out to be 32.2 µM; in assay [8] it was 34 µM.
Regarding `CCCCCCOc1ccc(C(=O)NOCc2ccccc2)cc1`, the TGI in [1] was over 100 µM; in assay [10] it was over 100 µM; in assay [2], over 100 µM; in [3], over 100 µM; in assay [4], over 100 µM; in assay [5], 67.4 µM. Also, the TGI in assay [6], in assay [7] and in [8] was over 100 µM in each case.
On to `Cn1c(=O)cc(NCc2ccc(Cl)cc2)[nH]c1=O`, for which the TGI in [1] was over 100 µM; in [9] it was over 100 µM; in assay [10], over 100 µM; in [2], 61.3 µM; in assay [3] it was 77.4 µM; in assay [4] it was over 100 µM. The TGI in assay [6], in [7] and in assay [8] was over 100 µM throughout.
As for `COc1cc(C2c3cc4c(cc3OC(Nc3ccc(C(=O)O)cc3)C2C)OCO4)cc(OC)c1OC` (centres undefined), the TGI was over 94.1 µM in assay [1]; over 100 µM in [10]; over 100 µM in [3]; 2.06 µM in assay [4]; over 26.8 µM in assay [6]; over 100 µM in assay [7].
In the case of `CC(N)C(C)Cc1ccccc1` (centres undefined), the TGI in [1], in assay [9], in [10], in assay [2], in assay [3] and in assay [4] was over 100 µM throughout. Besides, the TGI in assay [6], in assay [7] and in [8] was over 100 µM each time.
On to `Cc1ccc(-c2c(C#N)c(S)n(NS(=O)(=O)c3ccc(C)cc3)c(=O)c2C#N)cc1`, for which the TGI in assay [1] was over 100 µM; in assay [9] it was 38.7 µM; in assay [10], over 100 µM; in assay [4], over 100 µM; in assay [5] it was over 100 µM; in [6] it was 47.8 µM. Moreover, the TGI was 39.3 µM in assay [7] and over 100 µM in assay [8].
`O=C1/C(=C\c2cccc(Oc3ccccc3)c2)S(=O)(=O)C(c2ccccc2)N1c1ccc(Cl)cc1` (centres undefined): the TGI in assay [1] is 94.3 µM; in [9], 33.6 µM; in assay [10] it was 84.5 µM; in assay [3], over 100 µM; in assay [4], 34.7 µM; in assay [5] it was 40 µM. Further, the TGI in [6] turned out to be 49.9 µM; in [7], 34.4 µM; in assay [8], 32.7 µM.
Consider `Cc1cn(C2CCC(/C=N\O)O2)c(=O)[nH]c1=O` (centres undefined), for which the TGI in [1], in assay [10], in assay [3], in [4], in assay [5] and in [6] was over 100 µM in each case. Besides, the TGI in assay [7] and in assay [8] was over 100 µM throughout.
Take `O=c1[nH]c(=O)n(C2CC(O)C(CO)O2)cc1OCCCc1ccccc1` (centres undefined): the TGI in assay [1], in [9], in assay [10], in assay [2], in [3] and in assay [4] was over 100 µM in each case. The TGI in assay [6] and in [8] was over 100 µM each time.
Regarding `CC1OC(OC2C(O[C@H]3CC[C@@]4(C)[C@@H](CC[C@@H]5[C@@H]4CC[C@]4(C)[C@@H]6[C@H](C[C@@H]54)O[C@]4(CC[C@@H](C)CO4)[C@H]6C)C3)OC(CO)C(OC3OC(CO)C(O)C(OC4OCC(O)C(O)C4O)C3OC3OCC(O)C(O)C3O)C2O)C(O)C(O)C1O` (some centres undefined), the TGI in [1] was determined as 2.34 µM; in [9], 2.63 µM; in assay [10] it was 2.95 µM; in assay [2], 2.74 µM; in assay [3], 2.03 µM; in [4], 9.57 µM. Moreover, the TGI worked out at 2.36 µM in assay [6], 0.348 µM in assay [7] and 3.13 µM in assay [8].
In the case of `NCCCNc1nc2ccccc2c2c(=O)c3cc(C(F)(F)F)ccc3sc12`, the GI50 in assay [4] is 1.4 µM; in [6] it was 7.3 µM; in [7] it was 1.69 µM. In addition, the TGI was 2.75 µM in [4], 27.1 µM in assay [6] and 3.18 µM in assay [7].
On to `CSc1nc(-c2cc3c(c(SC)n2)CCCCC3)cc2c1CCCCC2`, for which the TGI in [1], in assay [10], in assay [3], in assay [4], in assay [6] and in assay [7] was over 100 µM each time. In [8], the TGI is over 100 µM.
Regarding `CC1(C)N=C(C(N)=O)c2ncn(-c3ccccc3)c2N1`, the TGI in assay [1], in assay [9], in assay [10], in [2], in assay [3] and in assay [4] was over 100 µM throughout. Moreover, the TGI in assay [5], in assay [7] and in assay [8] was over 100 µM each time.
`O=C(/C=C/c1ccc(Cl)cc1)Oc1ccc(/C=C2\CCCCC2=O)cc1`: the TGI in assay [1], in assay [9], in assay [10], in assay [2], in assay [3] and in assay [4] was over 100 µM each time. Further, the TGI in [5], in assay [7] and in [8] was over 100 µM each time.
Take `CCNC1(c2cccc(C)c2)OC(C)(C)c2cccc3cccc1c23` (centres undefined): the TGI in assay [1] is 37.9 µM; in [9] it was 34.3 µM; in [10] it was 38 µM; in [2], 44.3 µM; in [3], 48.9 µM; in assay [5], 35.9 µM. The TGI in [6] amounted to 37.2 µM; in assay [7] it was 36.6 µM; in [8], 33.2 µM.
